Assay results as given in ChEMBL document CHEMBL1146745, “Studies on anti-Helicobacter pylori agents. Part 3: A novel, efficacious cephem derivative, FR193879” (Bioorg Med Chem Lett, 2004).
≈ marks a conversion by molar mass, not a printed value.

How the values were obtained:
Rattus norvegicus [1] = experiment: Recovery rate from urine and bile was determined after iv administration at 20 mg/kg in rats; assay type: functional, organism-based; set-up: dose 20 mg/kg
[2] = Solubility at a pH of 2.0; assay type: physicochemical; settings: pH 2
[3] = Solubility at a pH of 4.0; assay type: physicochemical; settings: pH 4
Canis familiaris = experiment: Non-toxic dose in dogs after 4 weeks of oral administration; assay type: functional, Canis lupus familiaris
Helicobacter pylori [4] = experiment: Minimum inhibitory activity against clarithromycin- and metronidazole-resistant strain 16021; assay type: functional
Helicobacter pylori [5] = experiment: Minimum inhibitory activity against clarithromycin- and metronidazole-resistant strain 16043; assay type: functional
Helicobacter pylori [6] = experiment: Minimum inhibitory activity against clarithromycin- and metronidazole-resistant strain 15069; assay type: functional
Helicobacter pylori [7] = experiment: Minimum inhibitory activity against Helicobacter pylori FP1757; assay type: functional
Helicobacter pylori [8] = experiment: Minimum inhibitory activity against Helicobacter pylori FP1836; assay type: functional
Rattus norvegicus [9] = experiment: In vivo gastric mucosa concentration administered perorally at 20 mg/kg was determined in rats at 0.5 hr; assay type: functional; settings: route oral
Rattus norvegicus [10] = experiment: In vivo gastric mucosa concentration administered perorally at 20 mg/kg was determined in rats at 1 hr; assay type: functional; settings: route oral
Rattus norvegicus [11] = experiment: In vivo gastric mucosa concentration administered perorally at 20 mg/kg was determined in rats at 2 hr; assay type: functional; settings: route oral
Rattus norvegicus [12] = experiment: In vivo gastric mucosa concentration administered perorally at 20 mg/kg was determined in rats at 4 hr; assay type: functional; settings: route oral
[13] = Therapeutic efficacy at an oral dose of 0.032 mg/kg in mouse; assay type: ADME, organism-based; set-up: dose 0.032 mg/kg, route oral; settings: in vivo
[14] = Therapeutic efficacy at an oral dose of 0.1 mg/kg in mouse; assay type: ADME, organism-based; set-up: dose 0.1 mg/kg, route oral; settings: in vivo
[15] = Therapeutic efficacy at an oral dose of 0.125 mg/kg in guinea pig; assay type: ADME, organism-based; set-up: dose 0.125 mg/kg, route oral; settings: in vivo
[16] = Therapeutic efficacy at an oral dose of 0.32 mg/kg in mouse; assay type: ADME, organism-based; set-up: dose 0.32 mg/kg, route oral; settings: in vivo
[17] = Therapeutic efficacy at an oral dose of 0.5 mg/kg in guinea pig; assay type: ADME, organism-based; set-up: dose 0.5 mg/kg, route oral; settings: in vivo
[18] = Therapeutic efficacy at an oral dose of 2 mg/kg in guinea pig; assay type: ADME, organism-based; set-up: dose 2 mg/kg, route oral; settings: in vivo
Bacteroides fragilis [19] = experiment: Stability towards beta-lactamase was determined in […] FP784; assay type: functional, organism-based
Bacteroides fragilis [20] = experiment: Relative stability towards beta-lactamase was determined in […] FP784; assay type: functional
[21] = Retention time by HPLC as an index of polarity
[22] = Partition coefficient by HPLC retention as an index of polarity; assay type: ADME; settings: octanol/water
Helicobacter pylori [23] = experiment: Minimum inhibitory concentration against Helicobacter pylori FP1757; assay type: functional
[24] = Therapeutic efficacy at a dose of 0.1 mg/kg; assay type: ADME, organism-based; set-up: dose 0.1 mg/kg; settings: in vivo
[25] = Therapeutic efficacy at a dose of 0.32 mg/kg; assay type: ADME, organism-based; set-up: dose 0.32 mg/kg; settings: in vivo

SMILES: O=C(Cc1ccccc1)NC1C(=O)N2C(C(=O)O)=C(Sc3nccs3)CS[C@H]12 (some centres undefined)
- Recovery rate (Rattus norvegicus [1]): 63%

SMILES: NC(=O)Cc1csc(SC2=C(C(=O)O)N3C(=O)[C@@H](NC(=O)Cc4ccccc4)[C@H]3SC2)n1
- solubility [2]: 431 µg/mL (≈ 879 µM)
- solubility [3]: 2210 µg/mL (≈ 4500 µM)
- Dose (Canis familiaris): >100 mg/kg
- MIC (Helicobacter pylori [4]): 0.0016 µg/mL (≈ 0.00326 µM)
- MIC (Helicobacter pylori [5]): 0.0016 µg/mL (≈ 0.00326 µM)
- MIC (Helicobacter pylori [6]): 0.0063 µg/mL (≈ 0.0128 µM)
- MIC50 (Helicobacter pylori [7]): 0.78 ng/mL (≈ 0.00159 µM)
- MIC50 (Helicobacter pylori [8]): 3.13 ng/mL (≈ 0.00638 µM)
- Gastric concentration (Rattus norvegicus [9]): 385 µg/g
- Gastric concentration (Rattus norvegicus [10]): 163 µg/g
- Gastric concentration (Rattus norvegicus [11]): 68 µg/g
- Gastric concentration (Rattus norvegicus [12]): 38 µg/g
- Recovery rate (Rattus norvegicus [1]): 68%
- Ratio [13]: 1
- Ratio [14]: 4
- Ratio [15]: 0
- Ratio [16]: 5
- Ratio [17]: 3
- Ratio [18]: 5
- Km (Bacteroides fragilis [19]): 19.4 µg/mL
- Vmax (Bacteroides fragilis [19]): 0.647
- Ratio (Bacteroides fragilis [20]): 1.06
- HPLC retention time [21]: 6.2 min

SMILES: Cc1nnc(SC2=C(C(=O)O)N3C(=O)C(NC(=O)Cc4ccccc4)[C@H]3SC2)s1 (some centres undefined)
- HPLC retention time [22]: 10 min
- solubility [2]: 53 µg/mL (≈ 118 µM)
- solubility [3]: 1050 µg/mL (≈ 2340 µM)
- Dose (Canis familiaris): <32 mg/kg
- MIC (Helicobacter pylori [23]): 1.56 ng/mL (≈ 0.00348 µM)
- MIC50 (Helicobacter pylori [8]): 3.13 ng/mL (≈ 0.00698 µM)
- Gastric concentration (Rattus norvegicus [9]): 89 µg/g
- Gastric concentration (Rattus norvegicus [10]): 83 µg/g
- Gastric concentration (Rattus norvegicus [11]): 48 µg/g
- Gastric concentration (Rattus norvegicus [12]): 23 µg/g
- Recovery rate (Rattus norvegicus [1]): 33%
- Ratio [24]: 2
- Ratio [25]: 5
- Ratio [13]: 1
- Ratio [14]: 2
- Ratio [15]: 0
- Ratio [16]: 5
- Ratio [17]: 2
- Ratio [18]: 5
- HPLC retention time [21]: 10 min

SMILES: O=C(Cc1ccccc1)NC1C(=O)N2C(C(=O)O)=C(Sc3nncs3)CS[C@H]12 (some centres undefined)
- Recovery rate (Rattus norvegicus [1]): 9%

SMILES: O=C(Cc1cccs1)N[C@@H]1C(=O)N2C(C(=O)[O-])=C(C[n+]3ccccc3)CS[C@H]12
- Km (Bacteroides fragilis [19]): 31.7 µg/mL

SMILES: O=C(N[C@H](CO)[C@H](O)c1ccc([N+](=O)[O-])cc1)C(Cl)Cl [CHLORAMPHENICOL]
- MIC (Helicobacter pylori [4]): 50 µg/mL (≈ 155 µM)
- MIC (Helicobacter pylori [5]): 50 µg/mL (≈ 155 µM)
- MIC (Helicobacter pylori [6]): 25 µg/mL (≈ 77.4 µM)

SMILES: O=C(Cc1ccccc1)NC1C(=O)N2C(C(=O)O)=C(Sc3cnns3)CS[C@H]12 (some centres undefined)
- Recovery rate (Rattus norvegicus [1]): 21%

SMILES: Cc1ncc([N+](=O)[O-])n1CCO [METRONIDAZOLE]
- MIC (Helicobacter pylori [4]): 50 µg/mL (≈ 292 µM)
- MIC (Helicobacter pylori [5]): 50 µg/mL (≈ 292 µM)
- MIC (Helicobacter pylori [6]): 25 µg/mL (≈ 146 µM)

SMILES: O=C(O)Cc1csc(SC2=C(C(=O)O)N3C(=O)[C@@H](NC(=O)Cc4ccccc4)[C@H]3SC2)n1
- solubility [2]: 125 µg/mL (≈ 254 µM)
- solubility [3]: 1820 µg/mL (≈ 3700 µM)
- MIC50 (Helicobacter pylori [7]): 0.39 ng/mL (≈ 0.000793 µM)
- MIC50 (Helicobacter pylori [8]): 3.13 ng/mL (≈ 0.00637 µM)
- Gastric concentration (Rattus norvegicus [9]): 377 µg/g
- Gastric concentration (Rattus norvegicus [10]): 150 µg/g
- Gastric concentration (Rattus norvegicus [11]): 111 µg/g
- Gastric concentration (Rattus norvegicus [12]): 63 µg/g
- Ratio [13]: 2
- Ratio [14]: 1
- Ratio [15]: 0
- Ratio [16]: 5
- Ratio [17]: 0
- Ratio [18]: 2
- HPLC retention time [21]: 9.9 min

SMILES: CC1(C)S[C@@H]2[C@H](NC(=O)[C@H](N)c3ccc(O)cc3)C(=O)N2[C@H]1C(=O)O [AMOXICILLIN]
- MIC (Helicobacter pylori [4]): 0.025 µg/mL (≈ 0.0684 µM)
- MIC (Helicobacter pylori [5]): 0.05 µg/mL (≈ 0.137 µM)
- MIC (Helicobacter pylori [6]): 0.2 µg/mL (≈ 0.547 µM)
- MIC50 (Helicobacter pylori [7]): 12.5 ng/mL (≈ 0.0342 µM)
- MIC50 (Helicobacter pylori [8]): 50 ng/mL (≈ 0.137 µM)
- Km (Bacteroides fragilis [19]): 27.3 µg/mL
- Vmax (Bacteroides fragilis [19]): 0.0175

SMILES: Cc1nnc(SC2=C(C(=O)O)N3C(=O)[C@@H](NC(=O)Cc4csc(N)n4)[C@H]3SC2)s1
- HPLC retention time [22]: 1 min
- MIC (Helicobacter pylori [23]): 0.78 ng/mL (≈ 0.00166 µM)
- Ratio [24]: 0
- Ratio [25]: 1
